Measurements: a melting point compilation (Tetko et al.; mined from patent text by program, amines drawn as free bases though some values may be those of a salt)

| melting point [°C] | SMILES |
| --- | --- |
| 180 to 182 | CN(C)c1nc(Br)cnc1NS(=O)(=O)c1cccc2c(N(C)C)cccc12 |
| 153 to 154 | CCc1oc2ccccc2c1C(=O)c1c(Br)cc(Br)c(O)c1Br |
| 242 | C#CCOc1cc(N2C(=O)c3ccccc3C2=O)c(F)cc1C#N |
| 118 to 119 | C=CCOc1ccc(C(=O)c2ccnn2C)c(Cl)c1Cl |
| 126 to 128 | CC(C(=O)N(C)C)n1cc(Cl)c(-c2c(Cl)cccc2Cl)n1 (stereo not drawn) |
| 73 | CCc1cccc(Cn2[nH]c(N)cc2=O)c1 |
| 241 | CC(C(=O)O)c1ccc2nc3c(Cl)cc(Cl)cn3c(=O)c2c1 (stereo not drawn) |
| 81 to 82 | N[C@@H](Cc1ccc(C(F)(F)F)cc1)[C@H](O)c1cccc(F)c1 (racemic) |
| 243 to 248 | CS(=O)(=O)Nc1cccc(Nc2nc(N3CCC(O)C3)c3nc[nH]c3n2)c1 (stereo not drawn) |
| 227 to 228 | Cc1cc(NC(=O)NC2=C(c3ccccc3)c3ccccc3CS2)cc(C)c1O |
| 142 to 145 | CS(=O)c1c(C(F)(F)F)nn(-c2c(Cl)cc(C(F)(F)F)cc2Cl)c1N (stereo not drawn) |
| 252 to 254 | CSc1ncc(-c2ccccc2)c(=O)[nH]1 |
| 120 to 122 | CCOC(=O)c1cnn(-c2cc(C)cc(C)c2)c1S(C)(=O)=O |
| 135 to 136 | COC(=O)c1cccc(-c2ccc(O)cc2)c1 |
| 93 to 96 | CCCCCCCCCCCCCCCCCC(O)c1ccc(C(=O)O)c(Cl)c1 (stereo not drawn) |
| 95 | CC(=O)SCC(C(=O)NC(C)C(=O)OCc1ccccc1)C1CCc2ccccc21 (stereo not drawn) |
| 134 to 138 | N#CC(c1ccccc1)(c1ccccc1)[C@H]1CCCN(CCc2ccccc2)C1 |
| 94 to 95 | COc1ccc(S(=O)(=O)N(COCC[Si](C)(C)C)c2ccccc2-c2cc(F)ccc2C(C)=O)cc1 |

| melting point [°C] | SMILES |
| --- | --- |
| 118 to 119 | CCOC(=O)c1ccc2c(c1)OC(CCCBr)C(=O)N2 (stereo not drawn) |
| 152 to 154 | CC1(CCC(=O)O)CC(=O)c2ccc(OCc3cccc(OCc4ccc5ccccc5n4)c3)cc2O1 (stereo not drawn) |
| 170 | CC(=O)N1CC(=Cc2ccncc2)C(=O)c2ccccc21 |
| 33.5 to 34.5 | C=CCOC(=O)COc1ccc(CO)cc1 |
| 297 | Cc1ccc(NC(=O)c2cnn3c(C(F)(F)F)cc(-c4ccc(C(F)(F)F)cc4)nc23)cc1S(N)(=O)=O |
| 267 to 268 | O=C(O)Cc1c(C(=O)c2cccnc2)[nH]c2cc(Cl)ccc12 |
| 172 to 173 | CC(C)(C)[Si](C)(C)N1C(=O)C(C(Cc2ccccc2)OC=O)C1SC(c1ccccc1)(c1ccccc1)c1ccccc1 (stereo not drawn) |
| 52 to 54 | CC(=O)SCC(CCc1cccc(C)c1)C(=O)O (stereo not drawn) |
| 157 to 158 | COc1ccc(N2CCCn3c2nc2c(Cl)ccc(C(OCC(F)(F)F)C4CC4)c23)c(C)c1 (stereo not drawn) |
| 162 to 163 | Cn1c(COc2ccc(CC3SC(=O)NC3=O)cc2)nc2ccc(Oc3cccc(NC(=O)Nc4cccc(C(F)(F)F)c4)c3)cc21 (stereo not drawn) |
| 275 | CNC(=O)[C@@H]1CSCc2c(O)cc(O)c(C)c2C(=O)OC[C@H](O)C(=O)N1 |
| 160 to 162 | CC(=O)NCCCCNc1ccc(NCCN(C)C)c2c1C(=O)c1ccccc1C2=O |
| 233 to 234 | O=C(O)Cc1c(C(=O)c2cc(Cl)ccn2)[nH]c2cc(Cl)ccc12 |
| 211 to 214 | COC(=O)C(=CC(=CN(C)C)c1ccccc1[N+](=O)[O-])[N+](=O)[O-] |
| 194 to 195 | COc1ccc(C(=O)Nc2ccccc2)cc1Nc1ccccc1 |
| 285 to 295 | O=C1NC(=O)c2c1c(-c1ccccc1)cc1[nH]c3ccc(OP(=O)(O)O)cc3c21 |
| 175 to 177 | CCn1c(=NC(C)=O)c(-c2c(Cl)cccc2Cl)cc2cnc(SC)nc21 |

| SMILES | melting point [°C] |
| --- | --- |
| CN1CCN(c2nc3cccccc-3n2)CC1 | 93 to 95 |
| CN1CCN(Cc2ccc(-c3ccc(-c4cn([C@H]5CN6CCC5CC6)nn4)s3)cc2)CC1 | 214 |
| Cc1cc(C(C)(C)C)c(O)c(S(=O)(=O)Nc2ccc(C#N)c(C(F)(F)F)c2)c1 | 159 to 162 |
